How the values were obtained:
[1] = system: rice; assay: Test B flood test rice; type: in vivo, Oryza sativa
Method in brief: (§1)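 Each value is a visual injury score relative to controls, with 10 meaning complete control and 0 no effect. Evaluation took place twelve to sixteen days after the 2-leaf-stage plants were treated and kept in the greenhouse.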

[2] = system: sugar beet; assay: Test B pre/postemergence sugar beet; type: in vivo, Beta vulgaris; conditions: Preemergence
Method in brief: (§2)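 Response is a visual 0-to-10 score relative to untreated plants, where 0 means no effect and 10 means complete control, taken twelve to sixteen days after application. Treatments went onto soil at planting and onto foliage of 1- to 4-leaf plants, using a surfactant-containing non-phytotoxic solvent.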

[3] = system: crabgrass; assay: Test B pre/postemergence crabgrass; type: in vivo, Digitaria sanguinalis; conditions: Preemergence
Method in brief: as §2

[4] = system: surinam grass; assay: Test B pre/postemergence surinam grass; type: in vivo, Brachiaria decumbens; conditions: Preemergence
Method in brief: as §2

[5] = system: cocklebur; assay: Test B pre/postemergence cocklebur; type: in vivo, Xanthium strumarium; conditions: Preemergence
Method in brief: as §2

[6] = system: corn; assay: Test B pre/postemergence corn; type: in vivo, Zea mays; conditions: Preemergence
Method in brief: as §2

[7] = system: wild oat; assay: Test B pre/postemergence wild oat; type: in vivo, Avena fatua; conditions: Preemergence
Method in brief: as §2

[8] = system: morningglory; assay: Test B pre/postemergence morningglory; type: in vivo, Ipomoea hederacea; conditions: Preemergence
Method in brief: as §2

[9] = system: blackgrass; assay: Test B pre/postemergence blackgrass; type: in vivo, Alopecurus myosuroides; conditions: Preemergence
Method in brief: as §2

[10] = system: soybean; assay: Test B pre/postemergence soybean; type: in vivo, Glycine max; conditions: Preemergence
Method in brief: as §2

[11] = system: rape; assay: Test B pre/postemergence rape; type: in vivo, Brassica napus; conditions: Preemergence
Method in brief: as §2

[12] = system: smallflower flatsedge; assay: Test B flood test smallflower flatsedge; type: in vivo, Cyperus difformis
Method in brief: as §1

[13] = system: purple nutsedge; assay: Test B pre/postemergence purple nutsedge; type: in vivo, Cyperus rotundus; conditions: Preemergence
Method in brief: as §2

[14] = system: duck salad; assay: Test B flood test duck salad; type: in vivo, Heteranthera limosa
Method in brief: as §1

[15] = system: pigweed; assay: Test B pre/postemergence pigweed; type: in vivo, Amaranthus retroflexus; conditions: Preemergence
Method in brief: as §2

[16] = system: bamyardgrass; assay: Test B flood test barnyardgrass; type: in vivo, Echinochloa crus-galli
Method in brief: as §1

[17] = system: velvetleaf; assay: Test B pre/postemergence velvetleaf; type: in vivo, Abutilon theophrasti; conditions: Preemergence
Method in brief: as §2

[18] = system: wheat; assay: Test B pre/postemergence wheat; type: in vivo, Triticum aestivum; conditions: Preemergence
Method in brief: as §2

[19] = system: bedstraw; assay: Test B pre/postemergence bedstraw; type: in vivo, Galium aparine; conditions: Preemergence
Method in brief: as §2

[20] = system: giant foxtail; assay: Test B pre/postemergence giant foxtail; type: in vivo, Setaria faberii; conditions: Preemergence
Method in brief: as §2

[21] = Rate 62 g/ha, flood test species, Pre-emergence, visual evaluation after twelve to sixteen days
[22] = Rate 125 g/ha, under heading Pre-emergence, flood test species, visual evaluation after twelve to sixteen days
[23] = Rate 250 g/ha, Pre-emergence (flood test species), scale 0 to 10, 0 is no effect, 10 is complete control
[24] = Rate 500 g/ha, Pre-emergence section of Table B, 0 to 10 scale (0 no effect, 10 complete control)
[25] = Rate 125 g/ha, scale of 0 to 10 where 0 is no effect and 10 is complete control
[26] = Rate 1000 g/ha, scale 0 to 10 (0 no effect, 10 complete control)
[27] = Rate 250 g/ha, scale 0 to 10 (0 no effect, 10 complete control)
[28] = Rate 500 g/ha, scale of 0 to 10 where 0 is no effect and 10 is complete control

COP(=O)(CCn1c(=O)on(C(=O)N(c2ccccc2)C(C)C)c1=O)OC [Compound 697]
Plant response rating, Rice (0 to 10 scale, 0 is no effect, 10 is complete control) [1, 21]: 0
Rice plant response rating (0 to 10 scale, 0 is no effect, 10 is complete control) [1, 22]: 0
Rice plant response rating [1, 23]: 0
Rice plant response rating [1, 24]: 0
Plant response rating, Sugarbeets [2, 25]: 0
Plant response rating, Sugarbeets [2, 26]: 0
Plant response rating, Crabgrass [3, 25]: 0
Plant response rating, Crabgrass [3, 27]: 4
Plant response rating, Crabgrass [3, 26]: 9
Plant response rating, B. signalgrass [4, 25]: 0
Plant response rating, B. signalgrass [4, 27]: 0
Plant response rating, B. signalgrass [4, 28]: 5
Plant response rating, B. signalgrass [4, 26]: 9
Plant response rating, Cocklebur [5, 27]: 0
Plant response rating, Cocklebur [5, 28]: 0
Plant response rating, Cocklebur [5, 26]: 0
Plant response rating, Corn [6, 25]: 0
Plant response rating, Corn [6, 27]: 0
Plant response rating, Corn [6, 26]: 0
Plant response rating, Wild oats [7, 25]: 0
Plant response rating, Wild oats [7, 26]: 9
Plant response rating, Morningglory [8, 25]: 0
Plant response rating, Morningglory [8, 26]: 5
Plant response rating, Blackgrass [9, 25]: 0
Plant response rating, Blackgrass [9, 27]: 2
Plant response rating, Blackgrass [9, 28]: 6
Plant response rating, Blackgrass [9, 26]: 10
Plant response rating, Soybean [10, 25]: 0
Plant response rating, Soybean [10, 26]: 0
Plant response rating, Rape [11, 25]: 0
Plant response rating, Rape [11, 26]: 0
Plant response rating, S. Flatsedge (0 to 10 scale, 0 is no effect, 10 is complete control) [12, 21]: 0
S. Flatsedge plant response rating (0 to 10 scale, 0 is no effect, 10 is complete control) [12, 22]: 0
S. Flatsedge plant response rating [12, 23]: 0
S. Flatsedge plant response rating [12, 24]: 0
Plant response rating, Nutsedge [13, 25]: 0
Plant response rating, Nutsedge [13, 26]: 0
Plant response rating, Ducksalad (0 to 10 scale, 0 is no effect, 10 is complete control) [14, 21]: 0
Ducksalad plant response rating (0 to 10 scale, 0 is no effect, 10 is complete control) [14, 22]: 0
Ducksalad plant response rating [14, 23]: 0
Ducksalad plant response rating [14, 24]: 0
Plant response rating, Redroot pigweed [15, 25]: 0
Plant response rating, Redroot pigweed [15, 26]: 0
Plant response rating, Barnyardgrass (0 to 10 scale, 0 is no effect, 10 is complete control) [16, 21]: 0
Barnyardgrass plant response rating (0 to 10 scale, 0 is no effect, 10 is complete control) [16, 22]: 0
Barnyardgrass plant response rating [16, 23]: 0
Barnyardgrass plant response rating [16, 24]: 0
Plant response rating, Velvetleaf [17, 25]: 0
Plant response rating, Velvetleaf [17, 26]: 2
Plant response rating, Wheat [18, 25]: 0
Plant response rating, Wheat [18, 26]: 7
Plant response rating, Bedstraw [19, 25]: 0
Plant response rating, Bedstraw [19, 27]: 0
Plant response rating, Bedstraw [19, 28]: 0
Plant response rating, Bedstraw [19, 26]: 0
Plant response rating, Giant foxtail [20, 25]: 0
Plant response rating, Giant foxtail [20, 26]: 10

— patent US6737383B1, “Herbicidal oxadiazolidines” (priority 1999, dated 2004)
